Read-outs that look alike come from different tables or passages of the source. Ends that are not written are not given here.
Columns and labels:
[1] = tested on: S. aureus ATCC 9144
Description: (§1) The minimal inhibitory concentrations (MICs) for bacteria and fungi were determined by the broth microdilution method according to the Clinical and Laboratory Standards Institute (CLSI) protocol (Clinical and Laboratory Standards Institute (CLSI) [2002], [2012]). For this purpose, the initial inoculums of bacteria (5 × 10^5 CFU/mL) in Mueller–Hinton Broth (Biocorp, Warsaw, Poland) were exposed to the ranging concentrations of compounds (0.125–256 µg/mL) and incubated for 18 h at 37 °C. In case of fungi, the initial inoculums of 2 × 10^3 CFU/mL in RPMI-1640 (Sigma-Aldrich, Steinheim, Germany) were exposed to the ranging concentrations of compounds (0.5–256 µg/mL) and incubated for 24 h at 37 °C. The experiments were conducted on 96-well microtiter plates, with the final volume of 100 µL. Cell densities were adjusted spectrophotometrically (Multiskan™ GO Microplate Spectrophotometer, Thermo Scientific) at the wavelengths of 600 nm for bacteria and 530 nm for fungi. The MIC was taken as the lowest drug concentration at which a noticeable growth of microorganisms was inhibited. Reference strains of bacteria: Escherichia coli ATCC 25922, E. coli ATCC 23506, Enterococcus faecalis PCM 2673, Klebsiella pneumoniae ATCC 700603, Pseudomonas aeruginosa ATCC 9027, Staphylococcus aureus ATCC 25923, S. aureus 9144, Streptococcus pneumoniae ATCC 49619, and fungi: Aspergillus niger ATCC 16404, Candida albicans ATCC 10231, and C. glabrata ATCC 15126 were obtained from Polish Collection of Microorganisms (PCM, Polish Academy of Sciences, Wroclaw, Poland) and from American Type Culture Collection (ATCC). All experiments were conducted in triplicate.

[2] = tested on: S. pneumoniae ATCC 49619
Description: as §1

[3] = tested on: E. coli ATCC 23506
Description: as §1

[4] = tested on: C. glabrata ATCC 15126
Description: as §1

[5] = tested on: P. aeruginosa ATCC 9027
Description: as §1

[6] = tested on: A. niger ATCC 16404
Description: as §1

[7] = tested on: C. albicans ATCC 10231
Description: as §1

[8] = tested on: K. pneumoniae ATCC 700603
Description: as §1

[9] = tested on: S. aureus ATCC 25923
Description: as §1

[10] = tested on: E. coli ATCC 25922
Description: as §1

[11] = tested on: E. faecalis PCM 2673
Description: as §1

[12] = broth microdilution (CLSI), 5 × 10^5 CFU/mL in Mueller–Hinton Broth, 0.125–256 µg/mL, 18 h at 37 °C, triplicate
[13] = broth microdilution (CLSI), 2 × 10^3 CFU/mL in RPMI-1640, 0.5–256 µg/mL, 24 h at 37 °C, triplicate

Substance	MIC, S. aureus ATCC 9144 ([1]; ATCC 9144, 18 h) [µg/mL]	MIC, S. pneumoniae ATCC 49619 ([2]; ATCC 49619, 18 h) [µg/mL]	MIC, E. coli ATCC 23506 ([3]; ATCC 23506, 18 h) [µg/mL]	MIC, C. glabrata ATCC 15126 ([4]; ATCC 15126, 24 h) [µg/mL]	MIC, P. aeruginosa ATCC 9027 ([5]; ATCC 9027, 18 h) [µg/mL]	MIC, A. niger ATCC 16404 ([6]; ATCC 16404, 24 h) [µg/mL]	MIC, C. albicans ATCC 10231 ([7]; ATCC 10231, 24 h) [µg/mL]	MIC, K. pneumoniae ATCC 700603 ([8]; ATCC 700603, 18 h) [µg/mL]	MIC, S. aureus ATCC 25923 ([9]; ATCC 25923, 18 h) [µg/mL]	MIC, E. coli ATCC 25922 ([10]; ATCC 25922, 18 h) [µg/mL]	MIC, E. faecalis PCM 2673 ([11]; PCM 2673, 18 h) [µg/mL]	MIC, C. glabrata ATCC 15126 [4, 13] [µg/mL]	MIC, A. niger ATCC 16404 [6, 13] [µg/mL]	MIC, C. albicans ATCC 10231 [7, 13] [µg/mL]	MIC, K. pneumoniae ATCC 700603 [8, 12] [µg/mL]	also measured
KKLIKVFAKGFKKAKKLFKGIG-NH2 [r-pexiganan]	64	4	2	128	2	32	256	0.25	128	8	64					
FLPLIGRVLSGIL-NH2 [temporin A]	8	>256	>256	>256	>256	256	256	128	4	256	64					
KWKLFKKIGAVLKVL-NH2 [CAMEL]												64	16	32	0.125	MIC, S. aureus ATCC 9144 [1, 12]: 4 µg/mL; MIC, S. pneumoniae ATCC 49619 [2, 12]: 0.5 µg/mL; MIC, E. coli ATCC 23506 [3, 12]: 1 µg/mL; MIC, P. aeruginosa ATCC 9027 [5, 12]: 2 µg/mL; MIC, S. aureus ATCC 25923 [9, 12]: 4 µg/mL; MIC, E. coli ATCC 25922 [10, 12]: 2 µg/mL; MIC, E. faecalis PCM 2673 [11, 12]: 8 µg/mL
LGGIVSAVKKIVDFLG-NH2 [r-citropin 1.1]	64	128	128	256		256	128	32	64	64	128					
ILRWPWWPWRRK-NH2 [omiganan]	16	8	32		16				16	16	16	128	64	128	8	
